Here are results for six compounds from US20040097467A1 (priority 2002, published 2004).

Read-outs that look alike come from different tables or passages of the source. Marks after values point to notes of the source that are not given here.

One series concerns rabbits. The settings on record: injection or ingestion; cited from earlier work.
A further series deals with ovariectomized rats. The settings on record: oral; cited from earlier work.
In the next series the test system is JCR:LA-cp rat. From the text:
(§1) The JCR:LA-cp rat is known to spontaneously develop the range of dysfunction and pathophysiology associated with Metabolic Syndrome in humans, e.g., obesity, profound insulin resistance, atherosclerosis with enhanced vascular contractility, and reduced vascular relaxation. In addition, obese male rats spontaneously develop ischemic lesions of the heart and are prone to stress-induced myocardial infarcts that can be fatal. Insulin resistance develops rapidly in young rats between the ages of 4 and 7 weeks and is highly correlated with the cardiovascular disease. […] Consistent with this observation is the presence of glomerular sclerosis in the older rats.
(§2) Male JCR: LA-cp rats are maintained on a reversed light cycle at 3 or 7 weeks of age and acclimatized over a 1-week period. This allows metabolic studies to be conducted under subdued light, during the active (dark) phase of their diurnal cycle.
(§3) The rats are divided into four groups and receive one of the three aforementioned feed concentrations or unsupplemented feed. The dosage is maintained on either a mg/kg body weight basis, in which case the diet is formulated on a weekly basis to ensure each rat receives the intended dose on a mg/kg basis, or the specified concentration in the feed. Food consumption and body weights are measured twice weekly.
At 12 weeks of age, rats fast over the light (non-active) phase. A fasting blood sample is obtained from the tail and a standardized meal tolerance test (MTT) is performed. Following a 2-day recovery period, the rats are placed in a metabolism cage for 24 hours for the collection of urine.
(§4) At 13 weeks of age, rats in the fed state are sacrificed under anesthesia with halothane in oxygen, and the following tissues are removed for processing as described below:
(§5) The following parameters are measured: Food intake and body weights, ulin response (through a meal tolerance test), plasma total lipid profile, ratio n to creatinine, plasma levels of leptin, C-reactive protein and tumor necrosis TNFα), vascular function studies on aortic rings (contractility/relaxation), levels and activity of peroxisome proliferator-activated receptors (PPARs), osition of plasma cholesterol esters, liver, pancreas, muscle and adipose phatidylinositol-3 (PI-3) Kinase Signaling. Histological analysis are obtained sclerosis; islet morphometry; liver-hepatic damage and lipid content; and al electron microscopy for lipid).

In series [1] the test system is Aortic Rings of JCR:LA-cp rats. In words: Relaxant response of aortic rings to acetylcholine. Format: in vivo, rat. Conditions: treated cp/cp rats; for Maximum Relaxation: acetylcholine, rings pre-contracted with phenylephrine; for Slope: logistic curve fit, acetylcholine relaxation.
From the text: as §1, §2, §3, §4
(§6) 1. Thoracic aorta for vascular function studies;
as §5

For series [2], the system named is Aortic Rings of Male JCR: LA-cp Rats. In words: Contractile response of aortic rings to phenylephrine. It is filed as in vivo, rat. The settings on record: for Slope: logistic curve fit, phenylephrine contraction, treated cp/cp rats; for Maximum contraction: phenylephrine, aortic rings from treated cp/cp rats, mean +/− SEM.
From the text: as §1, §2, §3, §4, §6, §5

Series [3] concerns Hearts of Male JCR: LA-cp Rats. In words: Parameters for Langendorf-perfused hearts: coronary flow, reactive hyperemia, bradykinin response. It is filed as in vivo, rat. The settings on record: hearts of treated cp/cp rats; mean +/− SEM, 10 rats.
From the text: Samples were taken from Langendorf-perfused hearts of JCR:LA-cp rats, control and arginine-treated.
as §1, §2, §3, §5

For series [4] the following is noted: human volunteer, 8 g/l solution, three one-cup servings daily for three days, third-day 24-hour urine.
A further series concerns normal rodents. The settings on record: 1% added to normal diet (1.8% L-Arg content); cited from earlier work.
Series [5] has as its system subject at risk for bone loss. The settings on record: 500 mg total per day.
In a further series the test system is overweight subject. Conditions: 500 mg total per day, after several weeks.
For another series, the system named is postmenopausal women. The settings on record: injection, 50 mg twice weekly, 14 months; cited from earlier work.
[6] abbreviates: treatment begun at 4 weeks of age, at 12 weeks, vs control group.

Regarding `NCCCC[C@H](N)C(=O)O.O[Si](O)(O)O` [lysine silicate], the “intimal thickening and fragmentation of arterial elastic fibers” value with rabbits is “prevented”.
On to orthosilicic acid, for which, in the series on ovariectomized rats, the bone formation rate result is “increased” and the bone turnover entry was “slowed”.
As to `N=C(N)NCCC[C@H](N)C(=O)O.O[Si](O)(O)O` [arginine silicate], the “bradykinin response (FIG. 1)” value with JCR:LA-cp rat (coronary blood flow, FIG. 1) is listed as “improved”. For the same compound, in the series with JCR:LA-cp rat (dietary supplementation, compared to controls), the “metabolic syndrome and cardiovascular disease (CVD) symptoms” value was “reduced”. In the series on JCR:LA-cp rat (setting [6]), the “increases in serum insulin concentration” value is recorded as “reduced” and the “increases in urinary albumin excretion” value is on record as “reduced”. In the series on JCR:LA-cp rat (vs control animals), the body weight result is listed as “reduction”; the “coronary risk lipids and lipoprotein concentrations” value was “reduction”; the endothelial function result was “improved”; the “gene expression and PPAR (α, γ) activity” value is listed as “enhanced”. Further, in the series on JCR:LA-cp rat (vs control animals), the glomerular sclerosis result was “decreased”, the inflammatory markers result is recorded as “decreased levels”, the insulin resistance result is reported as “reduction” and the insulin signaling pathway result was “enhanced”. In the series on JCR:LA-cp rat (vs control animals), the ischemic lesions entry is recorded as “reduced”, the islet cell hyperplasia entry was “lower levels”, the sensitivity to insulin entry is “greater” and the “stress induced myocardial infarct” value was “reduced”. In the series with JCR:LA-cp rat (vs control animals), the “structural remodeling (e.g., enlargement of the heart)” value is on record as “reduced”; the tolerance to glucose result is “greater”; the vascular contractility entry was “decreased”; the vascular relaxation result was “increased”. Also, in [1], the “Maximum Relaxation” value is 97.1 +/− 4.0% and the Slope is −0.729 +/− 0.105. Moreover, in series [2], the Slope is listed as −1.01 +/− 0.17 and the Maximum contraction turned out to be 1.44 ± 0.07 g. Moreover, the “level of silica (% SiO2)” value (aqueous solution 0.5 g/l) turned out to be 17.5%. Further, the “level of silica (% SiO2)” value (aqueous solution 10 g/l, 1 hour) is on record as 11.8%. Besides, the “level of silica (% SiO2)” value (aqueous solution 10 g/l, 2 hours) worked out at 10.8%. The “level of silica (% SiO2)” value (aqueous solution 10 g/l, 24 hours) was determined as 9.2%. Moreover, the “level of silica (% SiO2)” value (aqueous solution 10 g/l, time 0) stood at 17.5%. Further, in [3], the “Bradykinin response Maximum response relative flow” value was 1.95 +/− 0.40, the Coronary flow was determined as 10.8 ± 0.4 mL/min and the Reactive hyperemia was 186 +/− 25.3* %. Moreover, the “urinary silicon output vs baseline” value in series [4] was “increased more than tenfold”.
Turning to `Cl.N=C(N)NCCC[C@H](N)C(=O)O` [arginine HCl, reference compound], in the series with normal rodents, the thymic weight entry is “increased”. In [1], the “Maximum Relaxation” value is listed as 90.4 +/− 3.5% and the Slope is given as −0.673 +/− 0.093. Further, in [2], the Slope is on record as −1.03 +/− 0.14 and the Maximum contraction was 1.84 ± 0.07 g. Further, in series [3], the “Bradykinin response Maximum response relative flow” value is recorded as 1.48 +/− 0.55, the Coronary flow was determined as 10.5 ± 0.3 mL/min and the Reactive hyperemia was 170 +/− 11** %.
Take arginine silicate: the bone mineral density result in series [5] (after several months) is listed as “optimal level of bone density”. The “serum N-telopeptide of collagen type I and osteocalcin (markers of bone resorption and formation)” value in series [5] (after several weeks) is given as “returned to their normal ranges”. Further, in the series on overweight subject, the “blood lipid concentrations (cholesterol and triglycerides)” value is on record as “reduced”; the glucose metabolism entry was “normalized”.
Take `C[Si](O)(O)O` [monomethyltrisilanol]: the “increase of femoral density (average)” value with postmenopausal women is given as 4.7%. Further, the “intimal thickening and fragmentation of arterial elastic fibers” value in the series on rabbits is “prevented”.
